Reference: article PMC4841451 (Journal of medicinal chemistry, 2016)

Assays:
[1] = test system: pAkt (PI3K activity) in A549 and D54 cells; assay: Western blot of pAKT in cultured tumor cells; type: cell-based, human; conditions: 1 h treatment; for PI3K activity, level of pAKT (Western blot): cultured A549 cells; for PI3K inhibition in cells (Western blot): both cell lines (A549, D54)
[2] = test system: pErk1/2 (MEK1 activity) in A549 and D54 cells; assay: Western blot of pERK1/2 in cultured tumor cells; type: cell-based, human; conditions: both cell lines (A549, D54), 1 h treatment
[3] = test system: A549 lung tumor cells; assay: Cell viability, AlamarBlue assay, A549; type: cell-based, human; conditions: 48 h
[4] = test system: D54 glioma cells; assay: Cell viability, AlamarBlue assay, D54; type: cell-based; conditions: 48 h
[5] = test system: tumor ERK1/2 phosphorylation; assay: In vivo MEK1 inhibition in tumor bearing mice
[6] = test system: tumor Akt phosphorylation; assay: In vivo PI3K inhibition in tumor bearing mice
[7] = preliminary experiment, A549 and D54 tumors, data not shown
[8] = 375 mg/kg oral gavage, 2 h prior to sacrifice, D54 and A549 flank tumors

SMILES	PI3K activity, level of pAKT (Western blot) [1]	inhibition of MEK activity in cells (Western blot) [2]	PI3K inhibition in cells (Western blot) [1]	cell viability [3]	cell viability [4]	ERK1/2 levels in mouse tumors [5, 7]	pAkt levels in mouse tumors [6, 7]	phosphorylation of ERK1/2 in excised tumor tissue [5, 8]	phosphorylation of Akt in excised tumor tissue [6, 8]
O=C(CNCCONC(=O)c1ccc(F)c(F)c1Nc1ccc(I)cc1F)NCCCCCC(=O)N1CCN(c2nc(N3CCOCC3)nc(-n3c(C(F)F)nc4ccccc43)n2)CC1 [Compound 7, N-(2-((2-((6-(4-(4-(2-(Difluoromethyl)-1H-benzo[d]imidazol-1-yl)-6-morpholino-1,3,5-triazin-2-yl)piperazin-1-yl)-6-oxohexyl)amino)-2-oxoethyl)amino)ethoxy)-3,4-difluoro-2-((2-fluoro-4-iodophenyl)amino)benzamide]	high potency	–	–	–	–	–	–	–	–
O=C(NOCCNCCCCCC(=O)N1CCN(c2nc(N3CCOCC3)nc(-n3c(C(F)F)nc4ccccc43)n2)CC1)c1ccc(F)c(F)c1Nc1ccc(I)cc1F [Compound 9, N-(2-((6-(4-(4-(2-(Difluoromethyl)-1H-benzo[d]imidazol-1-yl)-6-morpholino-1,3,5-triazin-2-yl)piperazin-1-yl)-6-oxohexyl)amino)ethoxy)-3,4-difluoro-2-((2-fluoro-4-iodophenyl)amino)benzamide]	high potency	most pronounced	most pronounced	as effective as the combination of ZSTK474 and PD0325901	as effective as the combination of ZSTK474 and PD0325901	modulation	modulation	–	–
O=C(NOCCOCCOCCOCCN1CCN(c2nc(N3CCOCC3)nc(-n3c(C(F)F)nc4ccccc43)n2)CC1)c1ccc(F)c(F)c1Nc1ccc(I)cc1F [Compound 14, N-(2-(2-(2-(2-(4-(4-(2-(Difluoromethyl)-1H-benzo[d]imidazol-1-yl)-6-morpholino-1,3,5-triazin-2-yl)piperazin-1-yl)ethoxy)-ethoxy)ethoxy)ethoxy)-3,4-difluoro-2-((2-fluoro-4-iodophenyl)amino)benzamide]	high potency	most pronounced	most pronounced	as effective as the combination of ZSTK474 and PD0325901	as effective as the combination of ZSTK474 and PD0325901	–	–	inhibited	inhibited
